Data on three molecules can be found in ChEMBL document CHEMBL1201862, “PubChem BioAssay data set” (2004).

The source made the active and inactive calls. Where only a bound is given, the exact number is not on record here.

Assay [1] has as its target T1, Estrogen receptor beta (Homo sapiens, UniProt Q92731).
Assay [2] deals with T1, Estrogen receptor beta. The assay is described as follows: ERβ–SRC-3 coactivator interaction inhibitors, confirmation, orthogonal assay, biochemical, ELISA, streptavidin-HRP readout (AID 1060).
Assay [3] concerns the target T2, Replicative DNA helicase DnaB (Mycobacterium tuberculosis, UniProt P9WMR3).
T2 sequence (P9WMR3 whole entry): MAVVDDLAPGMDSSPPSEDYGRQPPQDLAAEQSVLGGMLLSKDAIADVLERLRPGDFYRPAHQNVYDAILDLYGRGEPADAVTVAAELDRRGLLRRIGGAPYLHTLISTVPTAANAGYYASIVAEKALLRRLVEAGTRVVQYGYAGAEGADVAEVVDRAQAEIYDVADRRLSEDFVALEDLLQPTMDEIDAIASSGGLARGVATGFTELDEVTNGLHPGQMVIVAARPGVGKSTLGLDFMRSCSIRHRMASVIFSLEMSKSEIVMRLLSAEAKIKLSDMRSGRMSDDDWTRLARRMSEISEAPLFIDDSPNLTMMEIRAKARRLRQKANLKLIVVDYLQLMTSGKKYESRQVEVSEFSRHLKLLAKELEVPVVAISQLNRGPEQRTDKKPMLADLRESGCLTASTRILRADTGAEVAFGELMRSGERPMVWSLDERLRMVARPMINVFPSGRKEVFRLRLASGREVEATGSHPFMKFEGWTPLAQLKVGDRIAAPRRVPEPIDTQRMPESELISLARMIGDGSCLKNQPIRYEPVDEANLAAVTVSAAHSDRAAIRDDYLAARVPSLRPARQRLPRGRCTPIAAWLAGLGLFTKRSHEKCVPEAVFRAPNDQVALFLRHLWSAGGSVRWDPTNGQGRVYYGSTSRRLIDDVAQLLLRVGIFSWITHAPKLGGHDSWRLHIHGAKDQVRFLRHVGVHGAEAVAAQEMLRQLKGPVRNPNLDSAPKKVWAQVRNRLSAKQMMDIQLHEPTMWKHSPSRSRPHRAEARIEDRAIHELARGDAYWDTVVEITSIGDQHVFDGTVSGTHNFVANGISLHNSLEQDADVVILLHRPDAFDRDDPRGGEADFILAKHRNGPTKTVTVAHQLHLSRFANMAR
The assay is described as follows: DnaB intein splicing inhibitors, dose response, biochemical, cell-free fluorescence (AID 449749). The format is functional.

In a further assay the target is T3, Protein RecA (Mycobacterium tuberculosis, UniProt P9WHJ3).
T3 sequence (P9WHJ3 whole entry): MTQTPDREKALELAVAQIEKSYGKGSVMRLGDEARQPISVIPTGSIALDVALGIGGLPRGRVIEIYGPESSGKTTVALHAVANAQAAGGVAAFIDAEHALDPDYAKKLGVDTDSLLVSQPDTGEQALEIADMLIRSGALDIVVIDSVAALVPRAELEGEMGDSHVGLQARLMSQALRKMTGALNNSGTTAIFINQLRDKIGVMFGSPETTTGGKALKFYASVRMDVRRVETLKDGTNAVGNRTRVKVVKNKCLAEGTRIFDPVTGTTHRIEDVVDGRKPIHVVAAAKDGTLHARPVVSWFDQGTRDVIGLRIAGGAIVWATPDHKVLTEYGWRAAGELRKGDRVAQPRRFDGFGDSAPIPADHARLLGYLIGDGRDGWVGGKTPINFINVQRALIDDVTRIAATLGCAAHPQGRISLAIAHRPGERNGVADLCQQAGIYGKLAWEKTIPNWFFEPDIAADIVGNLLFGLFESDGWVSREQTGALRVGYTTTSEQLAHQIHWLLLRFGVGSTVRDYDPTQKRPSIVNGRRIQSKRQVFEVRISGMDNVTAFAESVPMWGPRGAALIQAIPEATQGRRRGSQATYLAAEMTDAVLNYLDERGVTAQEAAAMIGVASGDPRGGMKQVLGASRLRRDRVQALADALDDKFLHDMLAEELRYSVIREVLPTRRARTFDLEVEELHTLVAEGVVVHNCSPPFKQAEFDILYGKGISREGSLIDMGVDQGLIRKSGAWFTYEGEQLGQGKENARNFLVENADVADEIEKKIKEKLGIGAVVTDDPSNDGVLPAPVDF
Kind of assay: Fluorescence Cell-Free Homogeneous Dose Retest to Identify Inhibitors of RecA-Intein Splicing Activity. [Related pubchem assays (depositor defined):AID2097, AID2223, AID489010, AID492950]. The class given is functional.

The target in the next assay is NADPH oxidase 1 (Homo sapiens, UniProt Q9Y5S8). The format is functional, cell-based.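 Also: Cell-based assay with luminescence read-out, IC50 derived from inhibitor dose-response curves; intracellular ROS from endogenous NOX1 in intact HT29 colon cancer cells; potency of inhibitors that lower the ROS luminescence signal.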
For the next assay, the target named is T4, Aspartyl aminopeptidase (Plasmodium falciparum 3D7, UniProt Q8I2J3).
T4 sequence (Q8I2J3 whole entry): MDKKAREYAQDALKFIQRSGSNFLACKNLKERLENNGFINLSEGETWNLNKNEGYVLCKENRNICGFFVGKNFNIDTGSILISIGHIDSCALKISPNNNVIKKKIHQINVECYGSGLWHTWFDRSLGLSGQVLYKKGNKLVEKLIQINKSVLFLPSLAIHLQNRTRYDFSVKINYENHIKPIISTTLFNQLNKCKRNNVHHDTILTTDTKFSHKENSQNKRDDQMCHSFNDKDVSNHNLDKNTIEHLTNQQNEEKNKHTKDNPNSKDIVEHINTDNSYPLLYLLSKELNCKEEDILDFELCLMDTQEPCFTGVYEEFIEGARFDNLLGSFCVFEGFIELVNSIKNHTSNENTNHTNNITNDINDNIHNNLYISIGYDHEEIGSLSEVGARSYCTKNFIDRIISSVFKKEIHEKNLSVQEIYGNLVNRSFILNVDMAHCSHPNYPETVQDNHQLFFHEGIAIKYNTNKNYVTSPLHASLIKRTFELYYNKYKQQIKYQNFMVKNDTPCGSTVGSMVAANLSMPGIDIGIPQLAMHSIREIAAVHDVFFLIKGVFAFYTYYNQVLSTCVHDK

Assay [4] in a line: Counterscreen for IDE inhibitors: Luminescence-based cell-based high throughput dose response assay to identify compounds that are cytotoxic to HEK cells. [Related pubchem assays: 434962 (Primary screen (IDE inhibitors in singlicate)), 449730 (Counterscreen (Cytotoxicity in triplicate)), 435028 (Confirmation (IDE inhibitors in triplicate)) …. The class given is functional. The following applies: HEK293.

Another assay deals with Procathepsin L (Homo sapiens, UniProt P07711).
Another assay addresses Large T antigen (Simian virus 40, UniProt P03070). The format is functional, Betapolyomavirus macacae.
The target of assay [5] is T5, Mannose-6-phosphate isomerase (Homo sapiens, UniProt P34949).
T5 sequence (P34949 whole entry): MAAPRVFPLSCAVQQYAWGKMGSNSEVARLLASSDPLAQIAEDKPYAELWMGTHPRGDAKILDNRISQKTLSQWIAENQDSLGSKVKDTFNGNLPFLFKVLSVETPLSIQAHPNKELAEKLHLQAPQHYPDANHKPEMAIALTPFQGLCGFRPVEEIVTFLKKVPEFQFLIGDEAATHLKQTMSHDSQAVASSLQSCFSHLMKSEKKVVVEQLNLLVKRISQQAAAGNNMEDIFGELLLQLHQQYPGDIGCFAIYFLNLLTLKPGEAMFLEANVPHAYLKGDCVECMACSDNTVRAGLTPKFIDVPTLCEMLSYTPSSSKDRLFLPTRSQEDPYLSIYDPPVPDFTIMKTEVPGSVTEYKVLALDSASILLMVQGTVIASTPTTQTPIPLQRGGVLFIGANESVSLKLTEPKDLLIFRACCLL
Kind of assay: inhibitors of human PMI, primary screen, biochemical, fluorescence intensity, coupled assay (AID 1209).

Assay [6] is described as follows: inhibitors of intracellular T. cruzi replication, confirmation, NIH3T3 host cells, beta-gal luminescence (AID 2044).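 Also: intracellular parasites grown in NIH/3T3 mouse fibroblasts as host cells; luminescent beta-galactosidase reporter signal from transgenic T. cruzi replicating inside host cells; inhibitors lower the luminescence signal.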 The format is functional, cell-based.
A short description of assay [7]: cytotoxicity toward NIH3T3 fibroblasts, dose response, counter-screen, cell-based, ATP luminescence, mouse fibroblasts (AID 2010).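 Also: cells exposed to compound for about 90 hours before reading.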 The format is functional.
Another assay has as its target T6, Insulin-degrading enzyme (Homo sapiens, UniProt P14735).
T6 sequence (P14735 whole entry): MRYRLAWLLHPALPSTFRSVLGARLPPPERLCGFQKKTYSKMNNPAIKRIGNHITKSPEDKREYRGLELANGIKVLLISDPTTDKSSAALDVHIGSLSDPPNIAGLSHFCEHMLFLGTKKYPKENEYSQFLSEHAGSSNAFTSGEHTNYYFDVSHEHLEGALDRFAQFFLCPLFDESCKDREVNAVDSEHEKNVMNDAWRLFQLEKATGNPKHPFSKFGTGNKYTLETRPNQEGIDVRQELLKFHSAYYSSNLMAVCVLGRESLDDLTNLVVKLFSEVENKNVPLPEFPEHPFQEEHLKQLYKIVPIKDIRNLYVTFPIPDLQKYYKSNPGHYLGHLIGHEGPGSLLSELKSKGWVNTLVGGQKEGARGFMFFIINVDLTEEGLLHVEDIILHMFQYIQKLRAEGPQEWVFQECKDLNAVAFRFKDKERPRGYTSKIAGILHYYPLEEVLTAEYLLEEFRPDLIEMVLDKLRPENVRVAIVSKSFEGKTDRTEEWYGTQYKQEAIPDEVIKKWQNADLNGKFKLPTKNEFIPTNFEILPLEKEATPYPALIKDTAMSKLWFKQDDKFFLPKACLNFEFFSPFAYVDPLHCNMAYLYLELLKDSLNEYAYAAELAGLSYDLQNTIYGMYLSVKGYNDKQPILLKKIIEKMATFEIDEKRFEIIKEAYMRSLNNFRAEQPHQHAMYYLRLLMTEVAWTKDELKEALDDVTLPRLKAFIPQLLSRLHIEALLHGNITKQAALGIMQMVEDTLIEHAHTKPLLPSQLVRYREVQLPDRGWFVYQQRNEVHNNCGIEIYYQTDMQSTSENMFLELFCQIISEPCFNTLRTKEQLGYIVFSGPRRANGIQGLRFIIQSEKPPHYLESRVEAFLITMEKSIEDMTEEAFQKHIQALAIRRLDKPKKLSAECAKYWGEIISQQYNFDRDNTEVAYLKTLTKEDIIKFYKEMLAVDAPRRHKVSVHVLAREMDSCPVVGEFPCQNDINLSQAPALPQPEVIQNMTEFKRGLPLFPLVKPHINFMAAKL
The assay is described as follows: Dose Response: Fluorescence polarization-based cell-based high throughput dose response assay for inhibitors of insulin-degrading enzyme (IDE). [Related pubchem assays: 434962 (Primary screen (IDE inhibitors in singlicate)), 449730 (Counterscreen (Cytotoxicity in triplicate)), 435028 (Confirmation (IDE inhibitors in triplicate)), 434984 (Summary …. The class given is functional.

The target in assay [8] is T5, Mannose-6-phosphate isomerase. Kind of assay: human PMI inhibitors, high substrate, primary screen, biochemical, fluorescence intensity, high mannose 6-phosphate (AID 1220).
For assay [9] the target is unchanged. Kind of assay: PMI enzyme inhibitors, confirmation, biochemical, fluorescence intensity (AID 1535).
A further assay addresses T7, Phosphomannomutase 2 (Homo sapiens, UniProt O15305).
T7 sequence (O15305 whole entry): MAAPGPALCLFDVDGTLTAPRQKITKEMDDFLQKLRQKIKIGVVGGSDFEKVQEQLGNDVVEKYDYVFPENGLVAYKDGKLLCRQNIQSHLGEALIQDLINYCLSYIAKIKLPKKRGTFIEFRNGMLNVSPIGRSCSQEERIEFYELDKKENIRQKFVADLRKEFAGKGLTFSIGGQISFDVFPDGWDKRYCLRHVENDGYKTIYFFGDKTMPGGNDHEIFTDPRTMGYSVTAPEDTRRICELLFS
Kind of assay: Counter screen SAR assay for PMM2 inhibitors via a fluorescence intensity assay. [Related pubchem assays (depositor defined):AID1545, AID1574].

The target of assay [10] is Phosphoethanolamine/phosphocholine phosphatase (Homo sapiens, UniProt Q8TCT1). Kind of assay: SAR assay for compounds that inhibit PHOSPHO1. [Related pubchem assays (depositor defined):AID1545, AID1565, AID1574].
Assay [11] addresses Eukaryotic translation initiation factor 4E (Mus musculus, UniProt P63073). The assay is described as follows: eIF4E–eIF4G protein interaction inhibitors, dose response, biochemical, TR-FRET (AID 855).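 Also: potency for disrupting eIF4E binding to eIF4GI seen as loss of FRET.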 The class given is functional.
The target of assay [12] is T8, Alkaline phosphatase, tissue-nonspecific isozyme (Homo sapiens, UniProt P05186).
T8 sequence (P05186 whole entry): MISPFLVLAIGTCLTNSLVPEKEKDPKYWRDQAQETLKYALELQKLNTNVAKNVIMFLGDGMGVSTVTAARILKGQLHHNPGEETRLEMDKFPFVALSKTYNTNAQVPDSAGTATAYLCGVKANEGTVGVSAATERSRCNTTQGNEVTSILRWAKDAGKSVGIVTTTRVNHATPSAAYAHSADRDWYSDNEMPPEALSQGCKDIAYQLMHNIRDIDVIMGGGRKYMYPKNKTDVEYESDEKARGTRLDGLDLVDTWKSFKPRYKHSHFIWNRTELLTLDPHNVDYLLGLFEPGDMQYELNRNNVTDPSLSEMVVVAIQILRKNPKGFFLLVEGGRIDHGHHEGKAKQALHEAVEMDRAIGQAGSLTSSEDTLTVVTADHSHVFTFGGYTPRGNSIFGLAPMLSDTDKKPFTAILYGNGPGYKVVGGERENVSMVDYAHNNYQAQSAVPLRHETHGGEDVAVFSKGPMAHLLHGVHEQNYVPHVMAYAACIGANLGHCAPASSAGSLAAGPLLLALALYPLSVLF
Kind of assay: human TNAP enzyme inhibitors, SAR follow-up, biochemical, luminescent, dose response (AID 1056).

T1 sequence (Q92731 whole entry): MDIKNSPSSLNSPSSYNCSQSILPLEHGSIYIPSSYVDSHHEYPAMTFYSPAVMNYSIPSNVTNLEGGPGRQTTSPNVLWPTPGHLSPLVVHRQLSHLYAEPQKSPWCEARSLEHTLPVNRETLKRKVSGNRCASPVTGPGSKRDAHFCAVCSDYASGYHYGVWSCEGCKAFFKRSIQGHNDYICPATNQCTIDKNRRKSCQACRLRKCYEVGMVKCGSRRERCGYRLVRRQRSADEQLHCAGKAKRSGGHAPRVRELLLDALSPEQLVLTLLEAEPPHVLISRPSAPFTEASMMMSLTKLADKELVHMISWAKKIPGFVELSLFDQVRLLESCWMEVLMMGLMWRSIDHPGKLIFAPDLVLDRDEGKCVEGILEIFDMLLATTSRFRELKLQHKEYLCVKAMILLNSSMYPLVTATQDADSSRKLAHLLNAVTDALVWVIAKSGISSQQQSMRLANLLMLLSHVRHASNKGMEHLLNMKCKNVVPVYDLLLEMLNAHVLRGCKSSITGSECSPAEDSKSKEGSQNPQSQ
Large T antigen, sequence (P03070 whole entry): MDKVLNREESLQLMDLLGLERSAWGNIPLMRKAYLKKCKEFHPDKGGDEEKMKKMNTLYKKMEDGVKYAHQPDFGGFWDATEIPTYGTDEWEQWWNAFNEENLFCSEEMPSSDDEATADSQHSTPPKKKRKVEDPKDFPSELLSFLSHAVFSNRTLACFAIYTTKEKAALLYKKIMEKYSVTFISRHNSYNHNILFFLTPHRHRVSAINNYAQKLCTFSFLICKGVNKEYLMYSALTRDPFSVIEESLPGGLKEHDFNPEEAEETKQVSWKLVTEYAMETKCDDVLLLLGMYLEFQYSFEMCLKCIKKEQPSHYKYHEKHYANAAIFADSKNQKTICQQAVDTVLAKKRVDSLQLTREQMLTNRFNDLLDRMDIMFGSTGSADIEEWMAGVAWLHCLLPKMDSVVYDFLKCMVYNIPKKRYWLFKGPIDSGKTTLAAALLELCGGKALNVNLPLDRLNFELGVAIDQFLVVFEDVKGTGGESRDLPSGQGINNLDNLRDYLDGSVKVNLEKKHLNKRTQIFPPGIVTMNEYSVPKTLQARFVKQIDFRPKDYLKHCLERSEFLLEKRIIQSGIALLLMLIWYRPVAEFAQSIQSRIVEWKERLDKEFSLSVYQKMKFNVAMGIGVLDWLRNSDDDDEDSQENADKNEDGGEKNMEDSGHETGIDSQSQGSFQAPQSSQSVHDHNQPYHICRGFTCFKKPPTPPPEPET
Procathepsin L, sequence (P07711 whole entry): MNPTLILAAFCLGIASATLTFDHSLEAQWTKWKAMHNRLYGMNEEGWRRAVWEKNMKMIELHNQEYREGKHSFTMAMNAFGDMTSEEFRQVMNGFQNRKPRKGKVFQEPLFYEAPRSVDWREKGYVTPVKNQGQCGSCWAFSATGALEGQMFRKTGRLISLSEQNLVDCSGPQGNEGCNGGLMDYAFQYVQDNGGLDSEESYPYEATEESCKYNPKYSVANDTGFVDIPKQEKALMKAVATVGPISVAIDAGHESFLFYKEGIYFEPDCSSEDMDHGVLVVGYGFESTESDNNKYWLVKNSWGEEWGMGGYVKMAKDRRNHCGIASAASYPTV
Eukaryotic translation initiation factor 4E, sequence (P63073 whole entry): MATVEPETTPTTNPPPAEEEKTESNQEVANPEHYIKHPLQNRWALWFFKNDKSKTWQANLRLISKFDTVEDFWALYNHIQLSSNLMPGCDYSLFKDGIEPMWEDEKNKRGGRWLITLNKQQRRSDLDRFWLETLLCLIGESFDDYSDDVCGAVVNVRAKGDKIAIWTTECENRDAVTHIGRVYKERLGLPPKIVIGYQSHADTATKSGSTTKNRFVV
NADPH oxidase 1, sequence (Q9Y5S8 whole entry): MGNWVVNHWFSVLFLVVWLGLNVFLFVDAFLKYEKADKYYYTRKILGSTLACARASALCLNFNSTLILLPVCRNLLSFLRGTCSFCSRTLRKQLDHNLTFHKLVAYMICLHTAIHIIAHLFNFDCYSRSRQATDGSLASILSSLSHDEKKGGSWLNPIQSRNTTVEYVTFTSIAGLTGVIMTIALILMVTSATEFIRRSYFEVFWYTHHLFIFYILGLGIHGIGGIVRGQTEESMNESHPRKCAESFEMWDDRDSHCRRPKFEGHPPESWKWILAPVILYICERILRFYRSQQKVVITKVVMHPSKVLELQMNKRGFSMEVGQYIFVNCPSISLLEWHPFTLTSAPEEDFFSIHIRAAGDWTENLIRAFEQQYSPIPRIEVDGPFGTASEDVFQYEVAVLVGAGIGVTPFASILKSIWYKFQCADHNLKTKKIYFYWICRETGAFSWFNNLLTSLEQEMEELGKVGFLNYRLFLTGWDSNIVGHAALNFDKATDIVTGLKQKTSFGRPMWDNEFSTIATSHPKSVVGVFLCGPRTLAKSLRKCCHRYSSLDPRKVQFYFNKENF
Phosphoethanolamine/phosphocholine phosphatase, sequence (Q8TCT1 whole entry): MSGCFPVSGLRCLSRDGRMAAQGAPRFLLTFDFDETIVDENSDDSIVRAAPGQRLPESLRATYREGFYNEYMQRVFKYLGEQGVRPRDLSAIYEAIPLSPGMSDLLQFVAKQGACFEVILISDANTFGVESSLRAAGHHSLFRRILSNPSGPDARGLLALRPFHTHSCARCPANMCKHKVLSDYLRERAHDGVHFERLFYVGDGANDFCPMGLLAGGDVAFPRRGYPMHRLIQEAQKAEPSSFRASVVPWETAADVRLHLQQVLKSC

Turning to `CC1(N2CCOCC2)CC2(O)C(=[N+]1[O-])CCc1nonc12` (centres undefined), the concentration for half-maximal inhibition (IC50) at Estrogen receptor beta [1] was 12 µM (active); at Estrogen receptor beta [2], 0.256 µM (not active). The AC50 in [3] is > 380 µM (inactive). The concentration for a half-maximal effect (EC50) at Protein RecA was 11.9 µM (active).
With `c1ccc(-c2nc(-c3ccccc3)c(-c3ccccc3)o2)cc1`, the IC50 against NADPH oxidase 1 is recorded as > 17 µM (not active).
For `Cc1ccc(-n2sc3ccccc3c2=O)cc1S(=O)(=O)N1CCCCC1`, the IC50 is 4.28 µM (active) on Aspartyl aminopeptidase; 10.5 µM (not active) in assay [4]; > 59.6 µM (not active) against Procathepsin L; 26.1 µM (active) at Large T antigen; > 50 µM (not active) in assay [5]; 4.05 µM (active) at Insulin-degrading enzyme. For the same molecule, the IC50 is > 50 µM (not active) in assay [8]; 3.06 µM (active) in [9]; 14.6 µM (active) at Phosphomannomutase 2; 1.84 µM (inactive) in assay [10]; 1.93 µM (active) in [11]; > 100 µM (inactive) in assay [12]. Besides, the 50% effective concentration (EC50) in assay [6] was 0.89 µM (active); in assay [7], > 60 µM (not active).
